Test results reported in article PMC8625693, “Synthesis and Structure-Activity Relationships of New 2-Phenoxybenzamides with Antiplasmodial Activity” (Pharmaceuticals, 2021).
Where two headings read alike, the source gives them in different places.

Experiments:
P. falciparum NF54 = experiment: In vitro microplate assay against P. falciparum NF54 (3H-hypoxanthine incorporation, erythrocytic stages); assay type: cell-based, Plasmodium falciparum
Procedure: (§1) All newly synthesized compounds were tested for their antiplasmodial activity against the chloroquine-sensitive strain Plasmodium falciparum NF54. Cytotoxicity was determined using rat skeletal myofibroblasts (L-6 cells). As standards chloroquine and podophyllotoxin were used.
In vitro activity against erythrocytic stages of P. falciparum was determined with a ^3H-hypoxanthine incorporation assay, using the chloroquine sensitive NF54 strain [44]. Chloroquine (Sigma C6628) was used as standard. Test compounds were dissolved in DMSO at 10 mg/mL and added to parasite cultures incubated in RPMI 1640 medium without hypoxanthine, supplemented with HEPES (5.94 g/L, NaHCO3 (2.1 g/L), neomycin (100 U/mL), Albumax (5 g/L) and washed human red blood cells A^+ at 2.5% hematocrit (0.3% parasitemia). Serial drug dilutions of 11 3-fold dilution steps (covering a range from 100–0.002 µg/mL) were prepared. The 96-well plates were incubated at a humidified atmosphere at 37 °C; 4% CO2, 3% O2, 93% N2. After 48 h, 0.05 mL of ^3H-hypoxanthine (=0.5 µCi) was added to each well. The plates were incubated for another 24 h under the same conditions. Then, the plates were harvested with a Betaplate cell harvester (Wallac, Zurich, Switzerland). The red blood cells were transferred onto glass fiber filter and washed with distilled water. The dried filters were inserted into a plastic foil with 10 mL of scintillation fluid and counted in a Betaplate liquid scintillation counter. IC50 values were determined from sigmoidal inhibition curves by linear regression using Microsoft Excel. Chloroquine was used as control.

[1] = In vitro cytotoxicity with L-6 cells (Alamar Blue); assay type: cell-based, rat
Procedure: as §1
(§2) In vitro cytotoxicity was determined using a primary cell line of rat skeletal myofibroblasts. The assay was performed in 96-well microtiter plates, each well containing 0.1 mL of RPMI 1640 medium, supplemented with 0.1% L-glutamine (200 mM) and 10% fetal bovine serum, as well as 4000 L-6 cells. Serial drug dilutions of 11 3-fold dilution steps (covering a range from 100–0.002 µg/mL) were prepared. After 70 h of incubation time, the plates were inspected under an inverted microscope to ensure sterile conditions and growth of the controls. […] Podophyllotoxin (Sigma P4405) was used as control.

[2] = Parallel artificial membrane permeability assay (PAMPA); conditions: pH 7.4
Procedure: The PAMPA was performed using a Corning Gentest Pre-coated PAMPA Plate System at a pH of 7.4. It consists of 96-well polystyrene plates, whereas the donor-plate (bottom plate) is a conventional 96-well microtiter plate. The base of the acceptor-plate (top plate) consists of a porous membrane. The pores are lined with a lipid-oil-lipid trilayer. Stock solutions (10 mM) of each test compound were prepared in DMSO or MeOH and then further diluted to a final concentration of 200 µM with phosphate-buffered saline (PBS) at a pH of 7.4. Compound solutions were then added to the wells of the donor plate and pure PBS was added to each well of the acceptor plate. Compounds and negative control (pure PBS) were tested in quadruplicates. Donor and acceptor plate were coupled and incubated at ambient temperature for 5 h. After that, the plates were separated and solutions from each well of both plates were transferred onto 96-well UV-Star Microplates (Greiner Bio-One). The UV-absorption was measured at different wavelengths (between 200 and 300 nm) by a SpectraMax M3 UV plate reader (Molecular Devices). The concentrations were received from a calibration curve for each substance. The plates were analyzed at a wavelength were the R^2 value of the calibration curve was higher than 0.99 [48]. […] (2) cequ=cDt* VD+cAt* VA/VD+VA where: • cD(t)—compound concentration in donor well at time t.
Recovery of compounds from donor and acceptor wells (mass retention) was calculated as shown in the equation below. Data were only accepted when recovery exceeded 70%. (3) R=1−cDt∗ VD+cAt∗ VA/c0∗ VD where: • R—mass retention (%); • cA(t)—compound concentration in acceptor well at time t; • cD(t)—compound concentration in donor well at time t; • c0—initial compound concentration in donor well; • VD—donor well volume; • VA—acceptor well volume.

CYP3A4 = molecular target: T1, CYP3A4 (Homo sapiens, UniProt P08684); experiment: Cytochrom P450 3A4 inhibition assay (P450-Glo, luciferin-IPA); assay type: in vitro ADME; conditions: recombinant human CYP3A4 Supersomes (+ oxidoreductase + b5), probe luciferin-IPA, stock solutions diluted to 20 µM, pH 7.4, triplicate
T1 construct: purchased Corning, Glendale, AZ, USA
T1 sequence (P08684 2-503 limits assumed): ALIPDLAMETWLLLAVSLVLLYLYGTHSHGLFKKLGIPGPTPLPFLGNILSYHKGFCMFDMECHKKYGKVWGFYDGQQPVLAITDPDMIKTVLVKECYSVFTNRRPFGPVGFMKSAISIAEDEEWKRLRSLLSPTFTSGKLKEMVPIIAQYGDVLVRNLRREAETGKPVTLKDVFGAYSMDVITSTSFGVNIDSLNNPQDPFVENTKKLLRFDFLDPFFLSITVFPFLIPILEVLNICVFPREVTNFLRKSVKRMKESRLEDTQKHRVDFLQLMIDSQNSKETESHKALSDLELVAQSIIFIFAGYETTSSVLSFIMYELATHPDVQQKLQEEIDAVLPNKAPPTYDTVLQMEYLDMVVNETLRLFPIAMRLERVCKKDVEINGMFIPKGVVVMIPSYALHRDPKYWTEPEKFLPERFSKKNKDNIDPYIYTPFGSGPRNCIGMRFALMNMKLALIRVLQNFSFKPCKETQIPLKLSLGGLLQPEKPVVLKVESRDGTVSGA
Procedure: The CYP3A4 inhibition assay was performed using 96-well White Plates (Greiner Bio-One) at a pH of 7.4. […] Stock solutions were further diluted to a final concentration of 20 µM using water (HPLC grade). The luciferin IPA stock solution (3 mM) was diluted to a final concentration of 0.3 mM using water (HPLC grade). The CYP3A4 reaction mixture was prepared by mixing water (HPLC grade) with potassium phosphate buffer (1 M), luciferin IPA (0.3 mM) and CYP3A4 membrane (1 pmol/µL). The control reaction mixture was prepared using water (HPLC grade), potassium phosphate buffer (1 M), luciferin IPA (0.3 mM) and membrane without CYP activity (1 pmol/µL). Solutions A and B of the NADPH regeneration system were mixed and HPLC grade water was added. The reconstituted luciferin detection reagent was prepared by mixing the reconstituted buffer with esterase with the luciferin detection reagent. Then, solutions of test compounds and standard were added to the wells of the 96-well White Plate, each was tested in triplicate. The CYP3A4 reaction mixture was added to each well and the plate was incubated for 10 min at room temperature. After that, the NADPH regeneration system was added, inducing the reaction followed by an incubation time of 10 min at ambient temperature. By adding the reconstituted luciferin detection reagent, the reaction was terminated, and a luminescent signal was formed. Luminescence was measured by a SpectraMax M3 UV plate reader (Molecular Devices). The relative light units (RLU) were received from a calibration curve with beetle luciferin. […] The CYP3A4 inhibition (%) was calculated from the RLU.

L-6 cells = experiment: In vitro cytotoxicity with L-6 cells (Alamar Blue); assay type: cell-based, rat
Procedure: as §1, §2

[3] = rat skeletal myofibroblasts, average of four determinations, read-out: Cytotoxicity L-6 Cells IC50
[4] = Plasmodium falciparum, NF54, chloroquine-sensitive strain NF54, blood stages, average of four determinations, read-out: P.f. NF54 IC50
[5] = chloroquine-sensitive strain NF54, blood stages, average of four determinations, read-out: P.f. NF54 IC50
[6] = rat, Cytotoxicity L-6 Cells IC50

Row | SMILES | IC50 (P. falciparum NF54; [4]) | Papp at 5 h, 200 µM [2] | inhibition at 10 min, 20 µM (CYP3A4) | IC50 at 72 h [1, 6] | other results
1 | CCN(CC)CCCC(C)Nc1ccnc2cc(Cl)ccc12 (stereo not drawn) [CQ, chloroquine, reference compound] |  |  |  |  | IC50 (P. falciparum NF54; Plasmodium falciparum, NF54, read-out: P.f. NF54 IC50): 0.009 µM; IC50 at 72 h [1, 3]: 90.9 µM
2 | CC(C)(C)OC(=O)N1CCN(c2ccccc2NC(=O)c2cccc(C(F)(F)F)c2Oc2ccccc2)CC1 [Compound 6, tert-Butyl-4-{2-[2-phenoxy-3-(trifluoromethyl)benzamido]phenyl}piperazine-1-carboxylate] | 1.01 to 1.15 µM | 3 ×10⁻⁶ cm/s | 87% |  | IC50 (P. falciparum NF54; [5]): 1.01 µM; IC50 at 72 h ([1]; rat, rat skeletal myofibroblasts, average of four determinations, read-out: Cytotoxicity L-6 Cells IC50): 128 µM
3 | CC(C)(C)OC(=O)N1CCN(c2ccccc2NC(=O)c2cccc(C(F)(F)F)c2)CC1 [Compound 7, tert-Butyl-4-{2-[3-(trifluoromethyl)benzamido]phenyl}piperazine-1-carboxylate] | 3.74 µM | 0.08 ×10⁻⁶ cm/s |  | 113 µM | 
4 | CC(=O)Nc1ccc(Oc2c(C(=O)Nc3ccccc3N3CCN(C(=O)OC(C)(C)C)CC3)cccc2C(F)(F)F)cc1 [Compound 8, tert-Butyl-4-{2-[2-(4-acetamidophenoxy)-3-(trifluoromethyl)benzamido]phenyl}piperazine-1-carboxylate] | 1.01 to 1.15 µM | 4.06 ×10⁻⁶ cm/s | 99% | 73 µM | IC50 (P. falciparum NF54; [5]): 1.15 µM
5 | CC(C)(C)OC(=O)Nc1ccccc1NC(=O)c1cccc(C(F)(F)F)c1Oc1ccc(F)cc1 [Compound 13, tert-Butyl-N-{2-[2-(4-fluorophenoxy)-3-(trifluoromethyl)benzamido]phenyl}carbamate] | 1.9 µM | 8.72 ×10⁻⁶ cm/s | 90% |  | 
6 | Nc1ccccc1NC(=O)c1cccc(C(F)(F)F)c1Oc1ccc(F)cc1 [Compound 14, N-(2-Aminophenyl)-2-(4-fluorophenoxy)-3-(trifluoromethyl)benzamide] |  | 11.4 ×10⁻⁶ cm/s |  | 129 µM | 
7 | CC(=O)N1CCN(c2ccccc2NC(=O)c2cccc(C(F)(F)F)c2Oc2ccc(F)cc2)CC1 [Compound 17, N-[2-(4-Acetylpiperazin-1-yl)phenyl]-2-(4-fluorophenoxy)-3-(trifluoromethyl)benzamide] | 2.53 µM | 10.1 ×10⁻⁶ cm/s |  | 27.1 µM | 
8 | NC(=O)N1CCN(c2ccccc2NC(=O)c2cccc(C(F)(F)F)c2Oc2ccc(F)cc2)CC1 [Compound 21, N-[2-(4-Carbamoylpiperazin-1-yl)phenyl]-2-(4-fluorophenoxy)-3-(trifluoromethyl)benzamide] |  | 7.44 ×10⁻⁶ cm/s |  | 31.8 to 35.4 µM | IC50 (L-6 cells; rat, 72 h): 35.4 µM
9 | CN(C)C(=O)N1CCN(c2ccccc2NC(=O)c2cccc(C(F)(F)F)c2Oc2ccc(F)cc2)CC1 [Compound 22, N-{2-[4-(N,N-Dimethylcarbamoyl)piperazin-1-yl]phenyl}-2-(4-fluorophenoxy)-3-(trifluoromethyl)benzamide] | 2.3 µM |  |  | 20.2 µM | 
10 | CC(C)(C)OC(=O)N1CCN(c2cccc(NC(=O)c3cccc(C(F)(F)F)c3Oc3ccc(F)cc3)c2)CC1 [Compound 36, tert-Butyl-4-{3-[2-(4-fluorophenoxy)-3-(trifluoromethyl)benzamido]phenyl}piperazine-1-carboxylate] | 3.3 µM | 6.17 ×10⁻⁶ cm/s | 96% | 124 µM | 
11 | CC(C)(C)OC(=O)N1CCN(c2ccc(NC(=O)c3cccc(C(F)(F)F)c3Oc3ccc(F)cc3)cc2)CC1 [Compound 37, tert-Butyl-4-{4-[2-(4-fluorophenoxy)-3-(trifluoromethyl)benzamido]phenyl}piperazine-1-carboxylate] | 0.269 µM | 0.09 ×10⁻⁶ cm/s | 93% | 124 µM | 
12 | Nc1cccc(NC(=O)c2cccc(C(F)(F)F)c2Oc2ccc(F)cc2)c1 [Compound 50, N-(3-Aminophenyl)-2-(4-fluorophenoxy)-3-(trifluoromethyl)benzamide] | 51.5 to 51.9 µM | 18.4 ×10⁻⁶ cm/s |  | 104 µM | IC50 (P. falciparum NF54; [5]): 51.5 µM
13 | Nc1ccc(NC(=O)c2cccc(C(F)(F)F)c2Oc2ccc(F)cc2)cc1 [Compound 51, N-(4-Aminophenyl)-2-(4-fluorophenoxy)-3-(trifluoromethyl)benzamide] | 51.5 to 51.9 µM | 12.9 ×10⁻⁶ cm/s | 88% | 130 µM | IC50 (P. falciparum NF54; [5]): 55.9 µM
14 | CC(C)(C)C(=O)N1CCN(c2ccc(NC(=O)c3cccc(C(F)(F)F)c3Oc3ccccc3)cc2)CC1 [Compound 55, N-{4-[4-(2,2-Dimethylpropanoyl)piperazin-1-yl]phenyl}-2-phenoxy-3-(trifluoromethyl)benzamide] | 4.66 µM | 11.2 ×10⁻⁶ cm/s | 60% | 89.8 µM | 
15 | COc1cc([C@@H]2c3cc4c(cc3[C@H](O)[C@H]3COC(=O)[C@H]23)OCO4)cc(OC)c1OC [POD, podophyllotoxin, reference compound] |  |  |  |  | IC50 (L-6 cells; [3]): 0.012 µM
16 | Cn1c(=O)c2c(ncn2C)n(C)c1=O [caffeine, reference compound] |  | 8 ×10⁻⁶ cm/s |  |  | 
